Results published in ChEMBL document CHEMBL1156829 (Proc Natl Acad Sci U S A, 2008).

Key:
[1] = system: Plasmodium falciparum; test: NOVARTIS: Inhibition of Plasmodium falciparum 3D7 (drug-susceptible) proliferation in erythrocyte-based infection assay; assay type: functional, organism-based; details: Plasmodium falciparum, 3D7
[2] = system: Plasmodium falciparum; test: NOVARTIS: Inhibition of Plasmodium falciparum W2 (drug-resistant) proliferation in erythrocyte-based infection assay; assay type: functional, organism-based; details: Plasmodium falciparum, W2; read-out: EC50
[3] = NOVARTIS: Cytotoxicity against human hepatocellular carcinoma cell line (Huh7); assay type: toxicity, cell-based, Huh-7; details: Huh7 cells (hepatocellular carcinoma cell line)

Row | SMILES | EC50 [1] | EC50 [2] | CC50 [3]
1 | CCCCCCN(C(=O)c1cccc(OC)c1)C(CC)c1nc2ccccc2c(=O)n1-c1ccc(Cl)cc1C (configuration not stated) | 1120 nM | > 178 nM | > 10000 nM
2 | CCOC(=O)c1cnc2c(C)c3[nH]c(C)c(C)c3cc2c1O | > 1310 nM | 1070 nM | > 10000 nM
3 | COc1ccc(-c2nc3ccccc3n2C2CCN(Cc3ccc(C)o3)CC2)cc1OC | > 1250 nM | 26.7 nM | > 10000 nM
4 | N#CC(=Cn1cc(Cc2ccc(Cl)cc2Cl)c2ccccc21)c1nn(CCO)c(N)c1C#N | 629 nM | 909 nM | 75000 nM
5 | COc1ccc(OC)c(-c2ccc(O)c(CNCC3CC4C=CC3C43CC3)c2)c1 (configuration not stated) | 350 nM | 39.8 nM | 20600 nM
6 | c1ccc(-c2cc(NCCCN3CCOCC3)nc(-c3ccccn3)n2)nc1 | > 1010 nM | 586 nM | > 10000 nM
7 | COCCOC(=O)C1=C(C)NC2=C(C(=O)CC(c3ccc(OC)c(OC)c3)C2)C1c1ccccc1Cl (configuration not stated) | 50.4 nM | 13.2 nM | > 100000 nM
8 | CCN(CC)CCNc1ccnc2cc(Cl)ccc12 | 7.16 nM | 6.01 nM | 29800 nM
9 | COc1ccc2nc(C)cc(NN=Cc3cccs3)c2c1 | 158 nM | 134 nM | 18400 nM
10 | COC(=O)c1cccc(NC(=O)C(=Cc2cccc([N+](=O)[O-])c2)NC(=O)c2ccccc2OC)c1 | 994 nM | 2910 nM | > 100000 nM
11 | COc1ccc(C=CC(=O)Nc2ccc3nc(N4CCN(C)CC4)cc(C)c3c2)cc1OC | 708 nM | 946 nM | 55200 nM
12 | CN(C)c1ccc(N2C(N)=NC(N)=NC23CCCC3)cc1 | 244 nM | > 1570 nM | > 10000 nM
13 | CN1CCN(c2cc(-c3cccnc3)nc(-c3ccncc3)n2)CC1 | 588 nM | 656 nM | > 9550 nM
14 | Cc1cc(Nc2ccc(C(=O)n3ccnc3)cc2)n2ncnc2n1 | > 1250 nM | > 347 nM | > 10000 nM
15 | Cn1nc(C(F)(F)F)c(-c2ccc(F)cc2)c1NC(=O)Nc1ccc(F)cc1F | 291 nM | 448 nM | 29200 nM
16 | O=c1sc(=NCC(O)c2ccc(Cl)c(Cl)c2)[nH]c2ccccc12 (configuration not stated) | 757 nM | 73.1 nM | > 10000 nM
17 | CCOc1ccc(N2C(=O)C3C4CC(C(Br)C4Br)C3C2=O)cc1 (configuration not stated) | > 12500 nM | 441 nM | > 72500 nM

Row | SMILES | EC50 [1] | EC50 [2] | CC50 [3]
18 | CCCCCCN(C(=O)c1ccc(C(C)(C)C)cc1)C(CC)c1nc2cc(Cl)ccc2c(=O)n1CC (configuration not stated) | 954 nM | 1010 nM | > 10000 nM
19 | COc1ccc(Nc2nc(NN=Cc3cccc(F)c3)nc(Nc3ccc([N+](=O)[O-])cc3)n2)cc1 | 662 nM | 704 nM | > 100000 nM
20 | COc1ccc(Nc2nc(Nc3ccc(OC)cc3)c3ccccc3n2)cc1 | 57.3 nM | 51.9 nM | 2100 nM
21 | COc1cc2cc(C(=O)Nc3ccccc3)c(N)nc2cc1OC | 409 nM | 964 nM | > 100000 nM
22 | COc1ccc2nc(C)cc(Nc3cccc(Cl)c3)c2c1 | 371 nM | 1100 nM | 50200 nM
23 | Cc1cccc(N2C(=O)C3C(C2=O)C2(c4ccccc4)C(=O)C3(c3ccccc3)C(c3ccccc3)=C2c2ccccc2)c1 (configuration not stated) | 1640 nM | 700 nM | > 100000 nM
24 | Cc1nn(C(=O)NS(=O)(=O)c2ccccc2Cl)c(C)c1C | > 810 nM | > 496 nM | > 10000 nM
25 | CCC(Oc1ccc(C(C)(C)CC)cc1C(C)(C)CC)C(=O)Nc1ccc(Cl)c([N+](=O)[O-])c1 (configuration not stated) | 275 nM | 349 nM | > 10000 nM
26 | CCCCNC(=O)C(CC)Sc1nnc(-c2ccc(C)cc2)c(-c2ccc(C)cc2)n1 (configuration not stated) | 471 nM | 2050 nM | > 100000 nM
27 | CCC(C(=O)N(C)CCCNc1ccnc2cc(Cl)ccc12)c1ccccc1 (configuration not stated) | 311 nM | 310 nM | 6170 nM
28 | O=C(Nc1ccc(C2=NCCN2)cc1)c1ccc(NC(=O)c2ccc(C3=NCCN3)cc2)cc1 | 81.9 nM | 13.5 nM | > 10000 nM
29 | CC(=O)N(Cc1ccc(F)cc1)C1=C(NCCc2ccccc2)C(=O)c2ccccc2C1=O | 5.93 nM | 18.2 nM | 2910 nM
30 | CCC[n+]1cccc2ccc3cccnc3c21 | 210 nM | 756 nM | 44300 nM
31 | O=C(NCCCN1CCCCC1)c1ccc2c(c1)sc1nc(-c3ccc(F)cc3)cn12 | 694 nM | 870 nM | > 100000 nM
32 | COc1cc(NC(C)CCCN(Cc2ccccc2OC)C(=O)C(Cl)Cl)c2ncccc2c1 (configuration not stated) | > 1500 nM | 554 nM | > 10000 nM
33 | CCN(CC)CCN1C(=O)c2ccccc2NC1c1ccc(Br)cc1 (configuration not stated) | 218 nM | 67.1 nM | 47800 nM
34 | COc1ccc(CNCc2cc(-c3ccnc4cc(Cl)ccc34)ccc2O)c(OC)c1 | 951 nM | 38.3 nM | 59200 nM
